By inhibition is commonly meant the share of the control response that was lost under treatment.

We go through five compounds from ChEMBL document CHEMBL3792369, “Nahuoic Acids B-E, Polyhydroxy Polyketides from the Marine-Derived Streptomyces sp. SCSGAA 0027” (2016).

Activity calls are given as the source filed them. The rule behind the calls is not given here.

Assay [1] deals with Acetylcholinesterase (Homo sapiens) (UniProt P22303). In words: Inhibition of acetylcholinesterase (unknown origin).
Acetylcholinesterase (Homo sapiens), sequence (P22303 whole entry): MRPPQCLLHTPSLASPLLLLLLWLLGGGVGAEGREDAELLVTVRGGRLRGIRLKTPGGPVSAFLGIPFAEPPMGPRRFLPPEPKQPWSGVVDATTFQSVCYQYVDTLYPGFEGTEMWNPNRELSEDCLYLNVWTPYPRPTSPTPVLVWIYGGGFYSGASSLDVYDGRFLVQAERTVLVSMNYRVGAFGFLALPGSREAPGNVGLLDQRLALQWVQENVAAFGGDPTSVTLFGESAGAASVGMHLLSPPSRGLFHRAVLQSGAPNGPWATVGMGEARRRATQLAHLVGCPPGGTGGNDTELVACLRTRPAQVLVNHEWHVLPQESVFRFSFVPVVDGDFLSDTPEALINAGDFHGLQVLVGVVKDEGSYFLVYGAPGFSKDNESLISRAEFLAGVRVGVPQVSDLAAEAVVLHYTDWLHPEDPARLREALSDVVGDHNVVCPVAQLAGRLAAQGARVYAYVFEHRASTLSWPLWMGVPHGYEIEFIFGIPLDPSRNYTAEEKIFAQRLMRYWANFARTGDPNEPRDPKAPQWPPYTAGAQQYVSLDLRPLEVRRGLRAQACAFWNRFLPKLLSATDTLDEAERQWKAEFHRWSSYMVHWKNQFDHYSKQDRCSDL
The subject of a further assay is K562. In words: Cytotoxicity against human K562 cells. It counts as functional, cell-based.
Another assay has as its system NCI-H1975. As to the kind of experiment: Cytotoxicity against human NCI-H1975 cells. It counts as functional, cell-based.
In another assay the test system is HL-60. As to the kind of experiment: Cytotoxicity against human HL60 cells. It counts as functional, cell-based.
The next assay has as its system Huh-7. In words: Cytotoxicity against human HuH7 cells. It counts as functional, cell-based.
The subject of assay [2] is Shewanella oneidensis. As to the kind of experiment: Antibacterial activity against Shewanella oneidensis MR-1. It counts as functional.
The test system of assay [3] is Staphylococcus aureus. In words: Antibacterial activity against Staphylococcus aureus. It counts as functional, organism-based.
The subject of assay [4] is Staphylococcus aureus. In words: Antibiofilm activity against Staphylococcus aureus assessed as inhibition of biofilm formation by crystal violet assay. It counts as functional, organism-based.
Assay [5] deals with Shewanella oneidensis. In words: Antibiofilm activity against Shewanella oneidensis MR-1 assessed as inhibition of biofilm formation at 200 ug/ml by crystal violet assay. It counts as functional.
The test system of a further assay is MCF7. As to the kind of experiment: Cytotoxicity against human MCF7 cells. It counts as functional, cell-based.
Another assay deals with BGC-823. As to the kind of experiment: Cytotoxicity against human BGC823 cells. It counts as functional, cell-based.

As for `CC1=C[C@@]2(C)[C@@H]([C@@H](/C=C(\C)C(=O)O)[C@@H]1/C(C)=C/C[C@H](O)C[C@@H](O)C[C@@H](O)[C@H](C)[C@@H](O)C(C)C)[C@@H](C)CC[C@H]2O`, the inhibition entry in assay [1] is “inactive”. Further, the result in the assay on K562, in the assay on NCI-H1975, in the assay with HL-60, with Huh-7, in the assay with Shewanella oneidensis [2] and in the assay on Staphylococcus aureus [3] was inactive. For the same compound, the outcome in the assay on Staphylococcus aureus [4], with MCF7 and in the assay with BGC-823 was inactive. The inhibition at 200 µg/mL in the assay with Shewanella oneidensis [5] is 95%.

Regarding `CC1=C[C@@]2(C)[C@@H]([C@@H](/C=C(\C)C(=O)O)[C@@H]1/C(C)=C/C[C@H](O)C[C@@H](O)[C@H](C)[C@@H](O)C(C)C)[C@@H](C)CC[C@H]2O`, the inhibition result in assay [1] was “inactive”. For the same compound, the outcome in the assay on K562, in the assay on NCI-H1975, in the assay with HL-60, with Huh-7, in the assay on Shewanella oneidensis [2] and in the assay on Staphylococcus aureus [3] was inactive. The result in the assay on Staphylococcus aureus [4], in the assay with MCF7 and with BGC-823 was inactive. Further, the inhibition at 200 µg/mL in the assay with Shewanella oneidensis [5] is 94%.

With `CC1=C[C@@]2(C)[C@H]([C@@H](C)[C@H](O)C[C@H]2O)[C@@H](/C=C(\C)C(=O)O)[C@@H]1/C(C)=C/C[C@H](O)C[C@@H](O)C[C@@H](O)[C@H](C)[C@@H](O)C(C)C`, the inhibition result in [1] was “inactive”. The outcome in the assay on K562, in the assay with NCI-H1975, in the assay with HL-60, in the assay with Huh-7, in the assay on Shewanella oneidensis [2] and in the assay with Staphylococcus aureus [3] was inactive. Moreover, the outcome with Staphylococcus aureus [4], with MCF7 and in the assay with BGC-823 was inactive. In addition, the inhibition at 200 µg/mL in the assay on Shewanella oneidensis [5] is 91%.

In the case of `CC1=C[C@@]2(C)[C@H]([C@@H](C)[C@H](O)[C@H](O)[C@H]2O)[C@@H](/C=C(\C)C(=O)O)[C@@H]1/C(C)=C/C[C@H](O)C[C@@H](O)[C@H](C)[C@@H](O)C(C)C`, the inhibition result in assay [1] was “inactive”. Moreover, the outcome with K562, with NCI-H1975, in the assay with HL-60, in the assay with Huh-7, in the assay on Shewanella oneidensis [2] and in the assay with Staphylococcus aureus [3] was inactive. For the same compound, the outcome with Staphylococcus aureus [4], in the assay on MCF7 and in the assay with BGC-823 was inactive. For the same compound, in the assay with Shewanella oneidensis [5], the inhibition at 200 µg/mL came out at 63%.

`CC1=C[C@@]2(C)[C@H]([C@@H](C)[C@H](O)C[C@H]2O)[C@@H](/C=C(\C)C(=O)O)[C@@H]1/C(C)=C/C[C@H](O)C[C@@H](O)[C@H](C)[C@@H](O)C(C)C`: the inhibition entry in assay [1] was “inactive”. In addition, the outcome in the assay on K562, in the assay on NCI-H1975, in the assay on HL-60, in the assay on Huh-7, in the assay with Shewanella oneidensis [2] and with Staphylococcus aureus [3] was inactive. The outcome in the assay on Staphylococcus aureus [4], in the assay on MCF7 and in the assay with BGC-823 was inactive. Also, in the assay with Shewanella oneidensis [5], the inhibition at 200 µg/mL worked out at 98%.
